Laboratory results published in patent US20250332266A1, “COMPOUNDS FOR THE DEGRADATION OF EGFR KINASE” (BeiGene Switzerland GmbH, priority 2022, published 2025).

Assays:
[1] = molecular target: T1, EGFR L858R/T790M/C797S (H1975-clone #25) (Homo sapiens, UniProt P00533, C797S/L858R/T790M); assay: EGFR degradation, HTRF total-EGFR assay, H1975-clone #25 (LTC); type: cell-based; settings: H1975-clone #25 L858R/T790M/C797S, 16 h treatment
T1 construct: expressed in transfected cells; host or cells: H1975 (clone #25), lentiviral transduction, endogenous EGFR knocked out
Text: (§1) H1975-clone #28 (Del19/T790M/C797S, or abbr: DTC), H1975-clone #23 (Del19/C797S, or abbr: DC), H1975-clone #25 (L858R/T790M/C797S, or abbr: LTC) and H1975-clone #8 (L858R/C797S, or abbr: LC). EGFR-Del19/T790M/C797S, EGFR-Del19/C797S, EGFR-L858R/T790M/C797S and EGFR-L858R/C797S were stably expressed in H1975 cell lines by lentivirus-mediated over-expression, respectively. The EGFR over-expressed cells then underwent knockout, in which the EGFR targeting sgRNA was designed to only target the endogenous EGFR copies and preserve the exogenous EGFR copies. Followed by the knockout, the edited H1975 cells were seeded in 96 well plates at the concentration of 1 cell/well, cultured for about 2 weeks to allow single clones formation. The formed clones were screened by DNA sequencing and whole exon sequencing analysis for the desired edition. H1975-clone #28, H1975-clone #23, H1975-clone #25 and H1975-clone #8 were finally confirmed as homozygous Del19/T790M/C797S EGFR, Del19/C797S EGFR, L858R/T790M/C797S EGFR and L858R/C797S EGFR clones, respectively.
(§2) H1975-#25, H1975-#28, H1975-#23 and H1975-#8 cells are treated with compounds diluted in 0.2% DMSO cell culture medium on day 2, incubate for 16 h, 37° C., 5% CO2. The final concentration of compounds in all assay is start with 10 μM, 5-fold dilution, total 8 doses were included.
(§3) Total-EGFR cellular kit(64NG1PEH) were used for evaluating EGFR degradation.
(§4) After 16 h treatment, add HTRF lysis buffer to each well; seal the plate and incubate 1 hour at room temperature on a plate shaker; Once the cells are lysed, 16 μL of cell lysate are transferred to a PE 384-well HTRF detection plate; 4 μL of pre-mixed HTRF antibodies are added to each well; cover the plate with a plate sealer, spin 1000 rpm for 1 min, incubate overnight at room temperature; read on BMG PheraStar with HTRF protocol (337 nm-665 nm-620 nm).
(§5) The inhibition (degradation) percentage of the compound was calculated by the following equation:
(§6) Inhibition percentage of Compound=100−100×(Signal−low control)/(High control−low control), wherein signal=each test compound group
(§7) High control=Cell group with added DMSO and without compound, indicating microplate readings without EGFR degradation.
(§8) Imax (Dmax) is the maximum percentage of inhibition (degradation).
(§9) The IC50 (DC50) value of a compound can be obtained by fitting the following equation
(§10) Wherein, X and Y are known values, and IC50, Hillslope, Top and Bottom are the parameters obtained by fitting with software. Y is the inhibition percentage (calculated from the equation), X is the concentration of the compound; IC50 is the concentration of the compound when the 50% inhibition is reached. The smaller the IC50 value is, the stronger the inhibitory ability of the compound is. Vice versa, the higher the IC50 value is, the weaker the ability the inhibitory ability of the compound is; Hillslope represents the slope of the fitted curve, generally around 1*; Bottom represents the minimum value of the curve obtained by data fitting, which is generally 0%±20%; Top represents the maximum value of the curve obtained by data fitting, which is generally 100%±20%. The experimental data were fitted by calculating and analyzing with Dotmatics data analysis software.

[2] = molecular target: EGFR Del19/T790M/C797S (H1975-clone #28) (Homo sapiens, UniProt P00533, T790M/C797S, form not given); assay: EGFR degradation, HTRF total-EGFR assay, H1975-clone #28 (DTC); type: cell-based; settings: H1975-clone #28 Del19/T790M/C797S, 16 h treatment
Text: as §1, §2, §3, §4, §5, §6, §7, §8, §9, §10

Sequence of EGFR Del19/T790M/C797S (H1975-clone #28) (P00533 with tags, fused parts or gaps DEL746-750/T790M/C797S, form open): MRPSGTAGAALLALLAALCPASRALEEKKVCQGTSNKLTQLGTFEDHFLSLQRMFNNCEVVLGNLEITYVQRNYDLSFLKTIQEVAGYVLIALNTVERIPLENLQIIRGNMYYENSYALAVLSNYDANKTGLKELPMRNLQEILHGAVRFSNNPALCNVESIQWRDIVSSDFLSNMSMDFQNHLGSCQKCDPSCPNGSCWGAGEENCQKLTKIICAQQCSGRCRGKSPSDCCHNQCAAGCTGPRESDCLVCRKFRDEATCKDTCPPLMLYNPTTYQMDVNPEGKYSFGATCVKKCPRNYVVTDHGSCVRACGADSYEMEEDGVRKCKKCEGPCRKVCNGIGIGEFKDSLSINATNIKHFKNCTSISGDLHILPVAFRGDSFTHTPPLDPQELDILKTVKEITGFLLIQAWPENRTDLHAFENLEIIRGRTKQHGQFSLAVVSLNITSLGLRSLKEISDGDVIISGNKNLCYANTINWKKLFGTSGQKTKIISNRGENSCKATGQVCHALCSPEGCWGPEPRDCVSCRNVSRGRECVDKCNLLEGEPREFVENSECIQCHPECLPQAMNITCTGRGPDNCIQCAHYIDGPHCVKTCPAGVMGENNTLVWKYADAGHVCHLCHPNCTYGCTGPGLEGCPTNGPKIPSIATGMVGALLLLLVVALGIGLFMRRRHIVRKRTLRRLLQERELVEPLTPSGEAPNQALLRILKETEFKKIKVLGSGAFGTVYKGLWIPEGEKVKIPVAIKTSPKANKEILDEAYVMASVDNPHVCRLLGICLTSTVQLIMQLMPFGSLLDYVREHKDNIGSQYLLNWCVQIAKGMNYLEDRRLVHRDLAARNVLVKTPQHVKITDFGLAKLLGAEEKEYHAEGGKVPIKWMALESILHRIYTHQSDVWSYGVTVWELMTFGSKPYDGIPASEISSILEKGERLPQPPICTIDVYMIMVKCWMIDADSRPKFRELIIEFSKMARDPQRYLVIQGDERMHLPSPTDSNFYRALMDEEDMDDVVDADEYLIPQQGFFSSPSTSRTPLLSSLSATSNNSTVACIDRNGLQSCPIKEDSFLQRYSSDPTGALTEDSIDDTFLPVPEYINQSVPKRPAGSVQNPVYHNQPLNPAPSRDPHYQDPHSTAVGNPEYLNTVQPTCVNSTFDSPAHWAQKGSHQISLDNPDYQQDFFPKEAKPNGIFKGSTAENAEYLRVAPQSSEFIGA
T1 sequence (P00533 25-1210 T790M/C797S/L858R): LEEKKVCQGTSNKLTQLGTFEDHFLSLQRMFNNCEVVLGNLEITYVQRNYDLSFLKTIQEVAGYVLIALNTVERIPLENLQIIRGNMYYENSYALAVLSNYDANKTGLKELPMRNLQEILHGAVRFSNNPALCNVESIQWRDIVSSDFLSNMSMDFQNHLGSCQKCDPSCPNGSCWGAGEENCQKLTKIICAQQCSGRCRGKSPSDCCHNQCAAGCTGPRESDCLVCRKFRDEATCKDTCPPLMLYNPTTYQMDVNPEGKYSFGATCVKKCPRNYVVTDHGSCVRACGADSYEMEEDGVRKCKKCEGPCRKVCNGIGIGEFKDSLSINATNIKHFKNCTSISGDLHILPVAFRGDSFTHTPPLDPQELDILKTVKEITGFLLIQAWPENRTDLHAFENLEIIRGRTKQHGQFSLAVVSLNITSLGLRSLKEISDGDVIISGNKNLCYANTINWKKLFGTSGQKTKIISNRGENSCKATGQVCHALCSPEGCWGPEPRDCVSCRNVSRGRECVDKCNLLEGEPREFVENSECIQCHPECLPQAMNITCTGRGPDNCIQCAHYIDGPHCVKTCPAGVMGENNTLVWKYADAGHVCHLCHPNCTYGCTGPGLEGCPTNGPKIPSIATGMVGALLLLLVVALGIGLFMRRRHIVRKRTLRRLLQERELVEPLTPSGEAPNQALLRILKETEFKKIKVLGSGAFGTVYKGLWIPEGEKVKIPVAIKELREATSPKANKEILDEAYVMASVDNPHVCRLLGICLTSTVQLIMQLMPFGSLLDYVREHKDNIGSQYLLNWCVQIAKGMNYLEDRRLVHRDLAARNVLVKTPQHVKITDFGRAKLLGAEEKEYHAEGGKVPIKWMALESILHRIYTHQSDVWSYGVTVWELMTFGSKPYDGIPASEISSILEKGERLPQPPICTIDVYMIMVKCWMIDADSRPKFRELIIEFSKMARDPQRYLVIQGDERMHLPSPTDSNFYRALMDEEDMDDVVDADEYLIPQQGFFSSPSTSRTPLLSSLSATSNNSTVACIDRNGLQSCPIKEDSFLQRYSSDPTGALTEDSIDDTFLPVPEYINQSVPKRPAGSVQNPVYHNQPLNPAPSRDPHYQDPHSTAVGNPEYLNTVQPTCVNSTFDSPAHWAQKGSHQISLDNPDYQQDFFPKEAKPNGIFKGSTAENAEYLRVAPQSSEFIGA

Q: Which results are given for `Cc1cc2cc(n1)-c1cnn(C)c1OC[C@H]1C[C@@H](CN3/C(=N/C2=O)Nc2ccc(N4CCN(CCNc5cc(F)c([C@H]6CCC(=O)NC6=O)c(F)c5)CC4)cc23)C1` (single isomer, unassigned) [Example 14]?
A: Degradation H1975 # 25-LTC [1]: 83.9; Degradation H1975 # 28 DTC [2]: 77.1

Q: Which results are given for `Cc1cc2cc(n1)-c1cnn(C)c1OC[C@H]1C[C@@H](CN3/C(=N/C2=O)Nc2ccc(N4CCN([C@H]5C[C@@H](Nc6cc(F)c([C@H]7CCC(=O)NC7=O)c(F)c6)C5)CC4)cc23)C1` (single isomer, unassigned) [Example 16]?
A: Degradation H1975 # 25-LTC [1]: 64.0; Degradation H1975 # 28 DTC [2]: 71.5

Q: For `Cc1cc2cc(n1)-c1cnn(C)c1OC[C@H]1C[C@@H](CN3/C(=N/C2=O)Nc2ccc(N4CCN(C5CCN(c6cnc(C7CCC(=O)NC7=O)c(F)c6)CC5)CC4)cc23)C1` (single isomer, unassigned) [Example 38, 3-(5-(4-(4-((7^1s,7^3s,E)-1^1,2^6-dimethyl-3-oxo-5^2,5^3-dihydro-1^1H,5^1H-9-oxa-4-aza-5(2,1)-benzo[d]imidazola-2(2,4)-pyridina-1(4,5)-pyrazola-7(1,3)-cyclobutanacyclononaphane-5^6-yl)piperazin-1-yl)piperdine-1-yl)-3-fluoropyridin-2-yl)piperidine 6-dione], which “Degradation H1975 # 25-LTC” value [1] is on record?
A: 81.4

Q: What about the “Degradation H1975 # 28 DTC” value [2] of the same compound?
A: 78.4

Q: How did the “Degradation H1975 # 25-LTC” value [1] turn out when `Cc1cc2cc(n1)-c1cnn(C)c1OC[C@H]1C[C@@H](CN3/C(=N/C2=O)Nc2ccc(N4CCN(C5CCN(c6cnc(C7CCC(=O)NC7=O)cc6C)CC5)C[C@H]4C)cc23)C1` (stereo partly drawn) [Example 1, 3-(5-(4-((R)-4-((7^1s,7^3S,E)-1^1,2^6-dimethyl-3-oxo-5^2,5^3-dihydro-1^1H,5^1H-9-oxa-4-aza-5(2,1)-benzo[d]imidazola-2(2,4)-pyridina-1(4,5)-pyrazola-7(1,3)-cyclobutanacyclononaphane-5^6-yl)-3-methylpiperazin-1-yl)piperidin-1-yl)-4-methylpyridin-2-yl)piperidine-2,6-dione] was run?
A: 92.8

Q: What about the “Degradation H1975 # 28 DTC” value [2] of the same compound?
A: 91.9

Q: For `Cc1cc2cc(n1)-c1cnn(C)c1OC[C@H]1C[C@H](CN3/C(=N/C2=O)Nc2ccc(CN4CCN(C(=O)C5CN(c6cc(F)c([C@H]7CCC(=O)NC7=O)c(F)c6)CC5(C)C)CC4)cc23)C1` (stereo partly drawn) [Example 2, (R)-3-(4-((S)-4-(4-(((7^1r,7^3S,E)-1^1,2^6-dimethyl-3-oxo-5^2,5^3-dihydro-1^2H,5′H-9-oxa-4-aza-5(2,1)-benzo[d]imidazola-2(2,4)-pyridina-1(4,5)-pyrazola-7(1,3)-cyclobutanacyclononaphane-5^6-yl)methyl)piperazine-1-carbonyl)-3,3-dimethylpyrrolidin-1-yl)-2,6-difluorophenyl)piperidine-2,6-dione], which “Degradation H1975 # 25-LTC” value [1] is on record?
A: 62.0

Q: And the “Degradation H1975 # 28 DTC” value [2]?
A: 84.3

Q: Which results are given for `Cc1cc2cc(n1)-c1cnn(C)c1OC[C@H]1C[C@@H](CN3/C(=N/C2=O)Nc2ccc(CN4CCN(C(=O)C5CN(c6cc(F)c([C@H]7CCC(=O)NC7=O)c(F)c6)C5)CC4)cc23)C1` [Example 3, (R)-3-(4-(3-(4-(((7^1s,7^3s,E)-1^1,2^6-dimethyl-3-oxo-5^2,5^3-dihydro-1^1H,5^1H-9-oxa-4-aza-5(2,1)-benzo[d]imidazola-2(2,4)-pyridina-1(4,5)-pyrazola-7(1,3)-cyclobutanacyclononaphane-5^6-yl)methyl)piperazine-1-carbonyl)azetidin-1-yl)-2,6-difluorophenyl)piperidine-2,6-dione]?
A: Degradation H1975 # 25-LTC [1]: 85.6; Degradation H1975 # 28 DTC [2]: 86.7
